One data set deals with mushroom tyrosinase. The data set is described as follows: Mushroom tyrosinase inhibition (L-tyrosine substrate, dopachrome absorbance at 490 nm). It counts as biochemical. The following applies: L-tyrosine as substrate, 30 min at 37 °C, mean ± SD, read-out: Anti-Tyrosinase IC50. On the procedure: All the compounds were investigated for their tyrosinase inhibitory effects using L-tyrosine as the substrate. […] All the compounds were first dissolved in dimethyl sulfoxide (DMSO) and then diluted into different concentrations (1, 2, 4, 10, 40, 80, and 160 µM). An amount of 100 µL of each sample solution and 50 µL of the 2 mM L-tyrosine solution in 0.1 M phosphate buffer (pH 6.5) were added to 96-well microplates. After incubation at room temperature for 5 min, 50 µL of mushroom tyrosinase (300 U/mL in phosphate buffer) was added to each well. After further incubation for 30 min under 37 °C, the absorbance of dopachrome produced in the mixture was determined at 490 nm with a microplate reader (SpectraMax 190; Molecular Devices, Sunnyvale, CA, USA). The percent of inhibition of tyrosinase activity was calculated using the formula: % inhibition = (A − B)/A × 100, in which A is the absorbance at 490 nm without the test sample, and B is the absorbance at 490 nm with the test sample. IC50 values were calculated from the mean values of data from four determinations.

The test system of data set [1] is A375P (human melanoma) cell line. Briefly: MTT cytotoxicity assay, A375P. It counts as cell-based. To be noted: 24 h treatment, mean ± SD, read-out: Cytotoxic effect IC50, cell line A375P. On the procedure: (§1) To evaluate the anticancer potential of compounds 1–11, an MTT assay was used to determine the cell viability of human melanoma (A375P) and murine melanoma (B16F10 and B16F1) cell lines following a 24 h treatment with compounds 1–11.
(§2) The cytotoxic activities of all the compounds (1–11) were evaluated using the MTT assay. Briefly, the A375P (human melanoma), B16F10 and B16F1 (mouse melanoma) cell lines obtained from the Korean Cell Line Bank (Seoul, Korea) were cultured in Dulbecco’s Modified Eagle’s Medium (DMEM) (Gibco, CA, USA) containing penicillin (100 units/mL)-streptomycin (100 µg/mL) (Gibco, CA, USA) and 5% heat-inactivated fetal bovine serum (FBS) (Welgene, Korea) in a humidified chamber with 5% CO2 at 37 °C. The cells were seeded in 96-well plates at a density of 6 × 10^3 cells/well and incubated for 24 h. The medium was then aspirated and replaced with 100 μL of fresh medium containing various concentrations of the test compound. After incubation for a further 24 h, the compound containing the medium was replaced with 100 μL of a MTT solution (0.5 mg/mL) and incubated for 4 h. Then the insoluble formazan crystals were dissolved in 100 µL of DMSO and measured at 490 nm on a microplate reader.
(Tetrazolium assays rely on reduction of a dye to a coloured formazan, in cell work by metabolically active cells.)

The test system of data set [2] is B16F10 (mouse melanoma) cell line. Briefly: MTT cytotoxicity assay, B16F10. The data set is classed as cell-based. To be noted: 24 h treatment, mean ± SD, read-out: Cytotoxic effect IC50, cell line B16F10. As to the method:
as §1, §2

Data set [3] concerns B16F1 (mouse melanoma) cell line. Briefly: MTT cytotoxicity assay, B16F1. It counts as cell-based. The following applies: 24 h treatment, mean ± SD, read-out: Cytotoxic effect IC50, cell line B16F1. On the procedure:
as §1, §2

From publication PMC8954733, “Microbial Transformation and Biological Activities of the Prenylated Aromatic Compounds from Broussonetia kazinoki” (Molecules, 2022) come the findings set out here.

Where two headings read alike, the source gives them in different places. Where only a bound is given, the exact number is not on record here.

On to `C=CC(C)(C)c1cc2c(cc1O)O[C@H](c1cc(O)c(O)c(CC=C(C)C)c1CC=C(C)C)CC2` [Compound 2, Kazinol E], for which the IC50 is more than 80 µM at mushroom tyrosinase; 11.5 ± 0.24 µM in data set [1] (Homo sapiens, A375P, 24 h); 12.1 ± 0.87 µM in data set [2] (Mus musculus, B16-F10, 24 h); 13.3 ± 0.22 µM in data set [3] (Mus musculus, B16-F1, 24 h).

As to `C=CC(C)(C)c1cc(CCCc2cc(O[C@@H]3O[C@H](CO)[C@@H](O)[C@H](O)[C@H]3O)c(O[C@@H]3O[C@H](CO)[C@@H](O)[C@H](O)[C@H]3O)c(CC=C(C)C)c2CC=C(C)C)c(O)cc1O` [Compound 9, kazinol C-3″,4″-di-O-β-D-glucopyranoside], the IC50 at mushroom tyrosinase is more than 80 µM; in data set [1] (Homo sapiens, A375P, 24 h) it was more than 80 µM; in data set [2] (Mus musculus, B16-F10, 24 h) it was more than 80 µM; in data set [3] (Mus musculus, B16-F1, 24 h) it was more than 80 µM.

For `CC(C)=CCc1c(CCCc2ccc(O)cc2O)cc(O)c(O)c1CC=C(C)C` [Compound 3, Kazinol F], the IC50 on mushroom tyrosinase worked out at 2.12 ± 0.21 µM; in data set [1] (Homo sapiens, A375P, 24 h) it was 18.16 ± 0.09 µM; in data set [2] (Mus musculus, B16-F10, 24 h), 19.9 ± 0.73 µM; in data set [3] (Mus musculus, B16-F1, 24 h) it was 13.8 ± 0.88 µM.

As to `C=CC(C)(C)c1cc(CCCc2cc(O)c3c(c2CC=C(C)C)C[C@H](C(C)(C)OC)O3)c(O)cc1O` [Compound 5, 5′-(2-methylbut-3-en-2-yl)-6″-(3-methylbut-2-enyl)-4″,5″-[(R)-2-(1-methoxy-1-methylethyl)]-dihydrofuranyl-2′,4′,3″-trihydroxydiphenylpropane], the IC50 at mushroom tyrosinase is more than 80 µM; in data set [1] (Homo sapiens, A375P, 24 h), 45.9 ± 0.65 µM; in data set [2] (Mus musculus, B16-F10, 24 h), 43.2 ± 0.71 µM; in data set [3] (Mus musculus, B16-F1, 24 h), 17.3 ± 0.22 µM.

On to `O=c1[nH]cc(F)c(=O)[nH]1` [Compound 5-FU, 5-FU, reference compound], for which the IC50 turned out to be 13.1 ± 1.55 µM in data set [1], 4.61 ± 0.16 µM in data set [2] and 12.8 ± 0.16 µM in data set [3].

For the molecule `C=CC(C)(C)c1cc(CCCc2cc(O[C@@H]3O[C@H](CO)[C@@H](O)[C@H](O)[C@H]3O)c(O)c(CC=C(C)C)c2CC=C(C)C)c(O)cc1O` [Compound 6, Kazinol C-3″-O-β-D-glucopyranoside], the IC50 on mushroom tyrosinase was more than 80 µM; in data set [1] (Homo sapiens, A375P, 24 h) it was more than 80 µM; in data set [2] (Mus musculus, B16-F10, 24 h) it was more than 80 µM; in data set [3] (Mus musculus, B16-F1, 24 h), more than 80 µM.

On to `CC(C)=CCc1c(CCCc2ccc(O)cc2O)cc(O)c(O[C@@H]2O[C@H](CO)[C@@H](O)[C@H](O)[C@H]2O)c1CC=C(C)C` [Compound 11, Kazinol F-4″-O-β-D-glucopyranoside], for which the IC50 at mushroom tyrosinase was 0.71 ± 0.01 µM; in data set [1] (Homo sapiens, A375P, 24 h), more than 80 µM; in data set [2] (Mus musculus, B16-F10, 24 h) it was more than 80 µM; in data set [3] (Mus musculus, B16-F1, 24 h), more than 80 µM.

On to `C=CC(C)(C)c1cc(CCCc2cc(O[C@@H]3O[C@H](CO)[C@@H](O)[C@H](O)[C@H]3O)c(O)c(CC=C(C)C)c2CC=C(C)C)c(O[C@@H]2O[C@H](CO)[C@@H](O)[C@H](O)[C@H]2O)cc1O` [Compound 7, kazinol C-2′,3″-di-O-β-D-glucopyranoside], for which the IC50 on mushroom tyrosinase is more than 80 µM; in data set [1], 23.6 ± 0.52 µM; in data set [1] (Homo sapiens, A375P, 24 h), 17.8 to 24.2 µM; in data set [2] it was 24.2 ± 1.26 µM; in data set [2] (Mus musculus, B16-F10, 24 h), 17.8 to 24.2 µM; in data set [3] it was 17.8 ± 1.65 µM. Also, the IC50 in data set [3] (Mus musculus, B16-F1, 24 h) lay in the range of 17.8 to 24.2 µM.

Consider `C=CC(C)(C)c1cc(CCCc2cc(O)c(O)c(CC=C(C)C)c2CC=C(C)C)c(O)cc1O` [Compound 1, Kazinol C], for which the IC50 at mushroom tyrosinase was more than 80 µM; in data set [1] (Homo sapiens, A375P, 24 h) it was 12.1 ± 0.24 µM; in data set [2] (Mus musculus, B16-F10, 24 h), 26 ± 0.33 µM; in data set [3] (Mus musculus, B16-F1, 24 h) it was 17.6 ± 0.33 µM.

On to `CC(C)=CCc1c([C@H]2Oc3cc(O)cc(O)c3C(=O)[C@@H]2O)cc(O)c(O)c1CC=C(C)C` [Compound 4, (2R,3R)-3,5,7,3′,4′-pentahydroxy-5′,6′-diprenylflavanonol], for which the IC50 is 24.1 ± 0.3 µM on mushroom tyrosinase; 13.8 ± 1 µM in data set [1] (Homo sapiens, A375P, 24 h); 27.8 ± 0.63 µM in data set [2] (Mus musculus, B16-F10, 24 h); 24.4 ± 1.82 µM in data set [3] (Mus musculus, B16-F1, 24 h).

For the molecule `C=CC(C)(C)c1cc(CCCc2cc(O)c(O[C@@H]3O[C@H](CO)[C@@H](O)[C@H](O)[C@H]3O)c(CC=C(C)C)c2CC=C(C)C)c(O)cc1O` [Compound 8, Kazinol C-4″-O-β-D-glucopyranoside], the IC50 at mushroom tyrosinase is more than 80 µM; in data set [1] (Homo sapiens, A375P, 24 h), more than 80 µM; in data set [2] (Mus musculus, B16-F10, 24 h), more than 80 µM; in data set [3] (Mus musculus, B16-F1, 24 h) it was more than 80 µM.

What is called IC50 is the concentration that inhibits the measured activity by half.
